Reference: patent publication US11311522B1 (Cavion, Inc., priority 2018, dated 2022)

Assay: PN002/Part II: safety and tolerability
Format: in vivo
Description: Clinical safety was monitored throughout the study by adverse events, clinical laboratory tests, vital signs, ECGs, and ECG telemetry.
The subject was not on telemetry at the time.

SMILES: CC(C)c1ccc(CC(=O)N[C@H](C)c2ccc(OCC(F)(F)F)cn2)cc1 [CX-8998]
- Abnormal sensation of limbs (12 mg/d): 0 n %
- Anger (12 mg/d): 0 n %
- Application site erythema (12 mg/d): 1 (16.7) n %
- Application site pruritus (12 mg/d): 1 (16.7) n %
- At least 1 adverse event (12 mg/d): 6 (100) n %
- Backache (12 mg/d): 0 n %
- Clamminess (12 mg/d): 0 n %
- Daydreaming (12 mg/d): 0 n %
- Disorientation (12 mg/d): 0 n %
- Dizziness (12 mg/d): 1 (16.7) n %
- Drowsiness (12 mg/d): 0 n %
- Dyspepsia (12 mg/d): 0 n %
- Euphoric mood (12 mg/d): 0 n %
- Eye Disorders (12 mg/d): 1 (16.7) n %
- Feeling drunk (12 mg/d): 0 n %
- Feeling of relaxation (12 mg/d): 2 (33.3) n %
- Floating feeling (12 mg/d): 0 n %
- Fuzzy head (12 mg/d): 0 n %
- Gastrointestinal Disorders (12 mg/d): 1 (16.7) n %
- Hallucination (12 mg/d): 0 n %
- Headache (12 mg/d): 1 (16.7) n %
- Heaviness of head (12 mg/d): 1 (16.7) n %
- Hyperactivity (12 mg/d): 1 (16.7) n %
- Hypoaesthesia mouth (12 mg/d): 0 n %
- Increased state of alertness (12 mg/d): 0 n %
- Intermittent headache (12 mg/d): 1 (16.7) n %
- Lethargy (12 mg/d): 0 n %
- Lightheadedness (12 mg/d): 0 n %
- Mood altered (12 mg/d): 1 (16.7) n %
- Mood change (12 mg/d): 0 n %
- Musculoskeletal and Connective Tissue Disorders (12 mg/d): 1 (16.7) n %
- Nausea (12 mg/d): 0 n %
- Nervous System Disorders (12 mg/d): 2 (33.3) n %
- Paraesthesia generalized (12 mg/d): 0 n %
- Paranoia (12 mg/d): 0 n %
- Psychiatric Disorders (12 mg/d): 2 (33.3) n %
- Respiratory, Thoracic and Mediastinal Disorders (12 mg/d): 0 n %
- Sedation (12 mg/d): 0 n %
- Sensation of heaviness (12 mg/d): 0 n %
- Sensation of pressure (12 mg/d): 0 n %
- Skin and Subcutaneous Tissue Disorders (12 mg/d): 1 (16.7) n %
- Sleep difficult (12 mg/d): 1 (16.7) n %
- Sleep disturbance (12 mg/d): 0 n %
- Somnolence (12 mg/d): 0 n %
- Sore throat (12 mg/d): 0 n %
- Spaced out (12 mg/d): 0 n %
- Syncope (12 mg/d): 0 n %
- Taste change (12 mg/d): 0 n %
- Temporal disorientation (12 mg/d): 0 n %
- Tingling (12 mg/d): 0 n %
- Tiredness (12 mg/d): 5 (83.3) n %
- Visual disturbance (12 mg/d): 0 n %
- Vivid dreams (12 mg/d): 0 n %
- Vomiting (12 mg/d): 0 n %
- Subjects discontinuing treatment because of adverse events (18 mg once daily): 4 of the 6 subjects
- Abnormal physical sensation (18 mg/d): 2 (33.3) n %
- Abnormal sensation of limbs (18 mg/d): 2 (33.3) n %
- Anger (18 mg/d): 2 (33.3) n %
- Application site erythema (18 mg/d): 0 n %
- Application site pruritus (18 mg/d): 0 n %
- At least 1 adverse event (18 mg/d): 6 (100) n %
- Backache (18 mg/d): 2 (33.3) n %
- Clamminess (18 mg/d): 1 (16.7) n %
- Daydreaming (18 mg/d): 2 (33.3) n %
- Disorientation (18 mg/d): 1 (16.7) n %
- Dizziness (18 mg/d): 2 (33.3) n %
- Drowsiness (18 mg/d): 2 (33.3) n %
- Dyspepsia (18 mg/d): 0 n %
- Euphoric mood (18 mg/d): 1 (16.7) n %
- Eye Disorders (18 mg/d): 2 (33.3) n %
- Feeling drunk (18 mg/d): 2 (33.3) n %
- Feeling of relaxation (18 mg/d): 0 n %
- Floating feeling (18 mg/d): 0 n %
- Fuzzy head (18 mg/d): 1 (16.7) n %
- Gastrointestinal Disorders (18 mg/d): 4 (66.7) n %
- Hallucination (18 mg/d): 2 (33.3) n %
- Headache (18 mg/d): 4 (66.7) n %
- Heaviness of head (18 mg/d): 1 (16.7) n %
- Hyperactivity (18 mg/d): 0 n %
- Hypoaesthesia mouth (18 mg/d): 2 (33.3) n %
- Increased state of alertness (18 mg/d): 0 n %
- Intermittent headache (18 mg/d): 0 n %
- Lethargy (18 mg/d): 1 (16.7) n %
- Lightheadedness (18 mg/d): 1 (16.7) n %
- Mood altered (18 mg/d): 0 n %
- Mood change (18 mg/d): 0 n %
- Musculoskeletal and Connective Tissue Disorders (18 mg/d): 4 (66.7) n %
- Nausea (18 mg/d): 2 (33.3) n %
- Nervous System Disorders (18 mg/d): 6 (100) n %
- Paraesthesia generalized (18 mg/d): 1 (16.7) n %
- Paranoia (18 mg/d): 2 (33.3) n %
- Psychiatric Disorders (18 mg/d): 6 (100) n %
- Respiratory, Thoracic and Mediastinal Disorders (18 mg/d): 1 (16.7) n %
- Sedation (18 mg/d): 0 n %
- Sensation of heaviness (18 mg/d): 1 (16.7) n %
- Sensation of pressure (18 mg/d): 0 n %
- Skin and Subcutaneous Tissue Disorders (18 mg/d): 3 (50.0) n %
- Sleep difficult (18 mg/d): 1 (16.7) n %
- Sleep disturbance (18 mg/d): 1 (16.7) n %
- Somnolence (18 mg/d): 0 n %
- Sore throat (18 mg/d): 1 (16.7) n %
- Spaced out (18 mg/d): 2 (33.3) n %
- Syncope (18 mg/d): 1 (16.7) n %
- Taste change (18 mg/d): 1 (16.7) n %
- Temporal disorientation (18 mg/d): 0 n %
- Tingling (18 mg/d): 0 n %
- Tiredness (18 mg/d): 2 (33.3) n %
- Visual disturbance (18 mg/d): 2 (33.3) n %
- Vivid dreams (18 mg/d): 0 n %
- Vomiting (18 mg/d): 1 (16.7) n %
- Abnormal physical sensation (any dose): 2 (6.7) N (%)
- Abnormal sensation of limbs (any dose): 2 (6.7) N (%)
- Anger (any dose): 2 (6.7) N (%)
- Application site erythema (any dose): 4 (13.3) N (%)
- Application site pruritus (any dose): 2 (6.7) N (%)
- At least 1 adverse event (any dose): 27 (90.0) N (%)
- Backache (any dose): 2 (6.7) N (%)
- Clamminess (any dose): 2 (6.7) N (%)
- Daydreaming (any dose): 3 (10.0) N (%)
- Disorientation (any dose): 2 (6.7) N (%)
- Dizziness (any dose): 3 (10.0) N (%)
- Drowsiness (any dose): 5 (15.7) N (%)
- Dyspepsia (any dose): 2 (6.7) N (%)
- Euphoric mood (any dose): 4 (13.3) N (%)
- Eye Disorders (any dose): 6 (20.0) N (%)
- Feeling drunk (any dose): 2 (6.7) N (%)
- Feeling of relaxation (any dose): 7 (23.3) N (%)
- Floating feeling (any dose): 3 (10.0) N (%)
- Fuzzy head (any dose): 3 (10.0) N (%)
- Gastrointestinal Disorders (any dose): 11 (36.7) N (%)
- Hallucination (any dose): 2 (6.7) N (%)
- Headache (any dose): 14 (46.7) N (%)
- Heaviness of head (any dose): 2 (6.7) N (%)
- Hyperactivity (any dose): 3 (10.0) N (%)
- Hypoaesthesia mouth (any dose): 2 (6.7) N (%)
- Increased state of alertness (any dose): 2 (6.7) N (%)
- Intermittent headache (any dose): 3 (10.0) N (%)
- Lethargy (any dose): 3 (10.0) N (%)
- Lightheadedness (any dose): 9 (30.0) N (%)
- Mood altered (any dose): 2 (6.7) N (%)
- Mood change (any dose): 2 (6.7) N (%)
- Musculoskeletal and Connective Tissue Disorders (any dose): 8 (26.7) N (%)
- Nausea (any dose): 5 (16.7) N (%)
- Nervous System Disorders (any dose): 20 (66.7) N (%)
- Paraesthesia generalized (any dose): 2 (6.7) N (%)
- Paranoia (any dose): 2 (6.7) N (%)
- Psychiatric Disorders (any dose): 15 (50.0) N (%)
- Respiratory, Thoracic and Mediastinal Disorders (any dose): 5 (16.7) N (%)
- Sedation (any dose): 2 (6.7) N (%)
- Sensation of heaviness (any dose): 2 (6.7) N (%)
- Sensation of pressure (any dose): 2 (6.7) N (%)
- Skin and Subcutaneous Tissue Disorders (any dose): 6 (20.0) N (%)
- Sleep difficult (any dose): 2 (6.7) N (%)
- Sleep disturbance (any dose): 2 (6.7) N (%)
- Somnolence (any dose): 3 (10.0) N (%)
- Sore throat (any dose): 3 (10.0) N (%)
- Spaced out (any dose): 3 (10.0) N (%)
- Syncope (any dose): 2 (6.7) N (%)
- Taste change (any dose): 2 (6.7) N (%)
- Temporal disorientation (any dose): 2 (6.7) N (%)
- Tingling (any dose): 2 (6.7) N (%)
- Tiredness (any dose): 13 (43.3) N (%)
- Visual disturbance (any dose): 4 (13.3) N (%)
- Vivid dreams (any dose): 4 (13.3) N (%)
- Vomiting (any dose): 3 (10.0) N (%)
- Nasal obstruction (male, human, in vivo, 7 days): 2 (6.7) N (%)
